Source: patent publication US20210321612A1, “USE OF QUERCETIN IN PLANT AGING PROMOTER” (TOBACCO RESEARCH INSTITUTE OF CHINESE ACADEMY OF …, priority 2019, published 2021)

Legend:
Format in all cases: in vivo
[1] = tested on: living plants of Arabidopsis thaliana; experiment: Spraying the quercetin plant senescence accelerator onto living plants of Arabidopsis thaliana; settings: attached leaves sprayed at 10 and 20 μmol/L; FIG. 3B
From the text: Experimental test 3: Effects of spraying the quercetin plant senescence accelerator onto living plants of Arabidopsis thaliana Living plants of Arabidopsis thaliana were sprayed with the quercetin plant senescence accelerator finished products prepared by the preparation method provided in one of Embodiments 1-3 of the present application, and the accelerating effect of the accelerator on the senescence of plant leaves was observed. The specific results were shown in FIGS. 3A-3C, and the experimental groups and their results were described below. Experimental group: living plants of Arabidopsis thaliana were sprayed with the quercetin plant senescence accelerators with concentrations of 10 μmol/L and 20 μmol/L in Embodiment 2, respectively. Control group: living plants Arabidopsis thaliana were sprayed with the 1/2 MS solution of 2-(N-morpholino)ethanesulfonic acid in which the concentration of 2-(N-morpholino)ethanesulfonic acid was 3 mmol/L.

Honghuadajinyuan tobacco = experiment: Spraying the quercetin plant senescence accelerator onto common tobacco in fields; settings: 10 μmol/L; attached leaves of tobacco; FIG. 5B
From the text: Experimental test 5: Effects of spraying the quercetin plant senescence accelerator onto common tobacco in fields It could be found from the experimental test 4 that 10 μmol/L was the optimal concentration of the quercetin plant senescence accelerator to accelerate mature and yellowing of tobacco leaves. Further, Honghuadajinyuan tobacco was sprayed with the quercetin plant senescence accelerator finished product, and the accelerating effect of the accelerator on the senescence of plant leaves was observed. The specific results were shown in FIGS. 5A-5D, and the experimental groups and their results were described below. The quercetin plant senescence accelerator having a concentration of 0 (the control group) and the quercetin plant senescence accelerator having a concentration of 10 μmol/L were sprayed onto living plants of common tobacco.

[2] = tested on: living plants of Nicotiana benthamiana; experiment: Spraying the quercetin plant senescence accelerator onto attached leaves of Nicotiana benthamiana; settings: attached leaves sprayed at 1, 10 and 20 μmol/L; FIG. 4B
From the text: Experimental test 4: Effects of spraying the quercetin plant senescence accelerator onto attached leaves of Nicotiana benthamiana Living plants of Nicotiana benthamiana were sprayed with the quercetin plant senescence accelerator finished product in Embodiment 3, and the accelerating effect of the accelerator on the senescence of plant leaves was observed. The specific results were shown in FIGS. 4A-4C, and the experimental groups and their results were described below. Experimental group: living plants of Nicotiana benthamiana were sprayed with the quercetin plant senescence accelerators having concentrations of 1 μmol/L, 10 μmol/L and 20 μmol/L, respectively. Control group: living plants of Nicotiana benthamiana were sprayed with the 1/2 MS solution of 2-(N-morpholino)ethanesulfonic acid in which the concentration of 2-(N-morpholino)ethanesulfonic acid was 2.9 mmol/L.

Measured: content of chlorophyll in leaves

O=c1c(O)c(-c2ccc(O)c(O)c2)oc2cc(O)cc(O)c12 [quercetin]
significantly reduced: [1] | Honghuadajinyuan tobacco | [2]
